We go through 4 compounds from US20220275274A1, “NEUTRAL FLUORESCENT MITOCHONDRIAL MARKER BASED ON NITROGEN-CONTAINING HETEROCYCLE, PREPARATION METHOD AND USE THEREOF” (SOOCHOW UNIVERSITY, priority 2020, published 2022).

In one data set the test system is L929 cells. Nature of the data set: cell imaging, colocalization with green mitochondrial marker Mito Tracker Green FM. To be noted: dye 1 μM; for mitochondria labeling ability (red mitochondrial marker): L929 (normal) and HeLa (cancer) cells, vs Mito Tracker Green FM; for colocalization coefficient: L929 cells, vs Mito Tracker Green FM (100 nm), red and green channel. It counts as cell-based. As for the experimental part: (§1) Dye 3a was formulated into a mother liquor in DMSO (dimethyl sulfoxide), and then added to a conventional cell culture medium to give a concentration of dye 3a in the cell culture medium of 1 μM. L929 cells and HeLa cells were respectively co-cultured for 10 min in an incubator at saturated humidity, 37° C., and 5% CO2 (the experiment was same below). The existing green mitochondrial marker Mito Tracker® Green FM (100 nm) was added, and the cells were co-incubated for another 10 min, washed three times with a PBS buffer, and imaged under a laser confocal microscope. In the red channel, light of 561 nm was used for excitation, and a fluorescence signal in the range of 570-750 nm was collected. In the green channel, light of 488 nm was used for excitation, and a fluorescence signal in the range of 500-550 nm was collected. […] The results are shown in FIG. 20, where (a) and (g) are the bright-field images; (b) and (h) are the cell images with dye 3a; (c) and (i) are the cell images with the green mitochondrial marker; (d) and (j) are overlapped images with red channel and green channel, (e) and (k) show the fluorescence intensity of the ROI line in the overlapped images; and (f) and (1) show colocalization assays, with a colocalization coefficient of 0.91 (L929) and 0.90 (HeLa) respectively.
(§2) The experiment method with dye 3b (1 μM) and dye 3c (1 μM) is the same as that with dye 3a above, except that dye 3a is replaced. […] In FIG. 21, (a) and (g) are the bright-field images; (b) and (h) are the cell images with dye 3b; (c) and (i) are the cell images with the green mitochondrial marker; (d) and (j) are overlapped images with red channel and green channel, (e) and (k) show the fluorescence intensity of the ROI line in the overlapped images; and (f) and (1) show colocalization assays, with a colocalization coefficient of 0.88 (L929) and 0.90 (HeLa) respectively. In FIG. 22, (a) and (g) are the bright-field images; (b) and (h) are the cell images with dye 3c; (c) and (i) are the cell images with the green mitochondrial marker; (d) and (j) are overlapped images with red channel and green channel, (e) and (k) show the fluorescence intensity of the ROI line in the overlapped images; and (f) and (1) show colocalization assays, with a colocalization coefficient of 0.89 (L929) and 0.87 (HeLa) respectively.
(§3) Dye 3d was formulated into a mother liquor in DMSO (dimethyl sulfoxide), and then added to a conventional cell culture medium to give a concentration of dye 3d in the cell culture medium of 1 μM. L929 cells and HeLa cells were respectively co-cultured for 10 min in an incubator at saturated humidity, 37° C., and 5% CO2. Then the green mitochondrial marker Mito Tracker® Green FM (100 nm) and a green lipid droplet marker were added (the synthesis is as described in CHen, Y.; Wei, X. R.; Sun, R.; Xu, Y. J.; Ge, J. F. Org Biomol CHem 2018, 16, 7619.). The cells were co-incubated for another 10 min, washed three times with a PBS buffer, and imaged under a laser confocal microscope. In the red channel, light of 561 nm was used for excitation, and a fluorescence signal in the range of 570-750 nm was collected. In the green channel, light of 488 nm was used for excitation, and a fluorescence signal in the range of 500-550 nm was collected. […] The results are shown in FIG. 23, where (a) and (f) are the bright-field images, (b) and (g) are the cell images with dye 3d, (c) is the cell image with the green lipid droplet marker, (h) is the cell image with the green mitochondrial marker, (d) and (i) are overlapped images with red channel and green channel, and (e) and (j) show the fluorescence intensity of the ROI line in the overlapped images. […]

In another data set the test system is HeLa cells. Described as above. It counts as cell-based. The conditions noted are these: dye 1 μM, vs Mito Tracker Green FM (100 nm), red and green channel. As to the method: as §1, §2, §3
The nature of data set [1]: ultraviolet absorption and fluorescence emission in chloroform. It counts as physicochemical. To be noted: 10 μM; for maximum emission wavelength (fluorescence spectrum): excitation wavelength and slit width per dye. As to the method: The ultraviolet absorption and fluorescence emission of the dyes prepared in the examples and comparative examples (at a concentration of 10 μM) in chloroform were tested. The horizontal ordinate is the wavelength, and the vertical ordinate is the absorbance and fluorescence intensity, respectively.
In the ultraviolet-visible absorption spectrum, dye 1a has the maximum absorption at 378 nm; and in the fluorescence spectrum, dye 1a has the highest fluorescence intensity at 452 nm, where the excitation wavelength is 370 nm, and the slit width is 3 nm/1.5 nm. In the ultraviolet-visible absorption spectrum, dye 1b has a maximum absorption wavelength of 382 nm; and in the fluorescence spectrum, dye 1b has a maximum emission wavelength of 485 nm, where the excitation wavelength is 374 nm, and the slit width is 3 nm/1.5 nm. In the ultraviolet-visible absorption spectrum, dye 1c has a maximum absorption wavelength of 385 nm; and in the fluorescence spectrum, dye 1c has a maximum emission wavelength of 454 nm, where the excitation wavelength is 380 nm, and the slit width is 3 nm/1.5 nm. In the ultraviolet-visible absorption spectrum, dye 2a has the maximum absorption at 364 nm; and in the fluorescence spectrum, dye 2a has the highest fluorescence intensity at 480 nm, where the excitation wavelength is 374 nm, and the slit width is 3 nm/1.5 nm. In the ultraviolet-visible absorption spectrum, dye 2b has a maximum absorption wavelength of 360 nm; and in the fluorescence spectrum, dye 2b has a maximum emission wavelength of 458 nm, where the excitation wavelength is 370 nm, and the slit width is 3 nm/1.5 nm. In the ultraviolet-visible absorption spectrum, dye 2c has a maximum absorption wavelength of 356 nm; and in the fluorescence spectrum, dye 2c has a maximum emission wavelength of 441 nm, where the excitation wavelength is 360 nm, and the slit width is 3 nm/3 nm. In the ultraviolet-visible absorption spectrum, dye 3a has the maximum absorption at 548 nm; and in the fluorescence spectrum, dye 3a has the highest fluorescence intensity at 606 nm, where the excitation wavelength is 560 nm, and the slit width is 1.5 nm/1.5 nm. In the ultraviolet-visible absorption spectrum, dye 3b has a maximum absorption wavelength of 549 nm; and in the fluorescence spectrum, dye 3b has a maximum emission wavelength of 608 nm, where the excitation wavelength is 540 nm, and the slit width is 1.5 nm/1.5 nm. In the ultraviolet-visible absorption spectrum, dye 3c has a maximum absorption wavelength of 554 nm; and in the fluorescence spectrum, dye 3c has a maximum emission wavelength of 611 nm, where the excitation wavelength is 540 nm, and the slit width is 1.5 nm/1.5 nm. In the ultraviolet-visible absorption spectrum, dye 3d has a maximum absorption wavelength of 556 nm; and in the fluorescence spectrum, dye 3d has a maximum emission wavelength of 619 nm, where the excitation wavelength is 570 nm, and the slit width is 1.5 nm/1.5 nm. In the ultraviolet-visible absorption spectrum, dye 4 has a maximum absorption wavelength of 501 nm; and in the fluorescence spectrum, dye 4 has a maximum emission wavelength of 515 nm, where the excitation wavelength is 495 nm, and the slit width is 1.5 nm/1.5 nm. The above UV absorption and fluorescence emission test methods are conventional methods.

Regarding `CCN(CC)c1ccc2nc3c4ccc(-c5ccc6[nH]ncc6c5)cc4c(=O)cc-3oc2c1` [dye 3a], in the data set with L929 cells, the “mitochondria labeling ability (red mitochondrial marker)” value (“mitochondria labeling ability” below) was “mitochondria labeling ability in both normal cells and cancer cells”; the colocalization coefficient is on record as 0.91. This compound also displayed a colocalization coefficient in the data set with HeLa cells of 0.90. In data set [1], the “maximum absorption wavelength (ultraviolet-visible absorption spectrum)” value (shortened to “maximum absorption wavelength”) turned out to be 548 nm and the “maximum emission wavelength (fluorescence spectrum)” value (“maximum emission wavelength” below) was determined as 606 nm.
As for `CCN(CC)c1ccc2nc3c4ccc(-c5cnc6[nH]ccc6c5)cc4c(=O)cc-3oc2c1` [dye 3b], in the data set on L929 cells, the “mitochondria labeling ability” value was “mitochondria labeling ability in both normal cells and cancer cells”; the colocalization coefficient worked out at 0.88. This compound yielded a colocalization coefficient in the data set with HeLa cells of 0.90. In addition, in data set [1], the “maximum absorption wavelength” value is recorded as 549 nm and the “maximum emission wavelength” value amounted to 608 nm.
For the compound `CCN(CC)c1ccc2nc3c4ccc(-c5cnc6[nH]ncc6c5)cc4c(=O)cc-3oc2c1` [dye 3c], in the data set on L929 cells, the “mitochondria labeling ability” value is “mitochondria labeling ability in both normal cells and cancer cells”; the colocalization coefficient came out at 0.89. The compound further gave a colocalization coefficient with HeLa cells of 0.87. Further, in data set [1], the “maximum absorption wavelength” value worked out at 554 nm and the “maximum emission wavelength” value is reported as 611 nm.
Turning to `CCN(CC)c1ccc2nc3c4ccc(-c5ccc6nccnc6c5)cc4c(=O)cc-3oc2c1` [dye 3d], the organelles marked entry with L929 cells (L929 and HeLa cells, vs Mito Tracker Green FM and a green lipid droplet marker) was “simultaneously mark two organelles, i.e. mitochondria and lipid droplets”. In data set [1], the “maximum absorption wavelength” value is 556 nm and the “maximum emission wavelength” value stood at 619 nm.
